This is an account of results in publication PMC9146984, “A Novel Proline-Rich Cathelicidin from the Alpaca Vicugna pacos with Potency to Combat Antibiotic-Resistant Bacteria: Mechanism of Action and the Functional Role of the C-Terminal Region” (Membranes, 2022).

In assay [1] the test system is E. coli BL21 (DE3) Star cell extract, coupled transcription/translation of EGFP. Briefly: In vitro transcription/translation inhibition assay (cell-free EGFP synthesis). The class given is biochemical, Escherichia coli. The following applies: EGFP fluorescence, 2 h, 30 °C; at least two independent experiments in triplicate; read-out: IC50, inhibition of in vitro protein synthesis in the E. coli cell-free system. Here is the method:
To investigate the effect of cathelicidins on the coupled transcription/translation process, the peptides were added to a cell-free protein synthesis (CFPS) reaction mix with a plasmid encoding enhanced green fluorescent protein (EGFP) variant (F64L, S65T, Q80R, F99S, M153T, and V163A) under control of the T7 promoter as described previously with some modifications. Briefly, the peptides were dissolved in 0.1% BSA in water. Bac7[1–22] was used as a positive control inhibitor. The fluorescence of the sample without inhibitor was set as the 100% value. The reaction proceeded for 2 h in 96-well v-bottom black polystyrene microplates in a plate shaker (30 °C, 1000 rpm). The fluorescence of the synthesized EGFP was measured with the microplate reader AF2200 (λExc = 488 nm, λEm = 510 nm; Eppendorf, Hamburg, Germany). The experimental data were obtained from at least two independent experiments performed in triplicate. Non-linear regression curves were generated using GraphPad Prism v.8.0.1 (GraphPad Software Inc., San Diego, CA, USA).

A further assay has as its system S. aureus ATCC 6538P. Briefly: Antimicrobial assay (MIC). The class given is cell-based, Staphylococcus aureus. The following applies: Mueller-Hinton broth supplemented with 0.9% NaCl. As to the method:
(§1) The reduction of resazurin to resorufin was measured.

The test system of another assay is S. aureus MDR CI 119. The experiment in a line: Antimicrobial assay (MIC). The class given is cell-based, Staphylococcus aureus. The following applies: Mueller-Hinton broth supplemented with 0.9% NaCl. Here is the method: as §1
For another assay, the system named is S. aureus ATCC 29213. Briefly: Antimicrobial assay (MIC). Format: cell-based, Staphylococcus aureus. Conditions: Mueller-Hinton broth supplemented with 0.9% NaCl. Here is the method: as §1
The test system of the next assay is S. aureus ATCC 25923. Briefly: Antimicrobial assay (MIC). Format: cell-based, Staphylococcus aureus. The following applies: Mueller–Hinton broth supplemented with 0.9% NaCl. As to the method: as §1
Another assay concerns E. coli MDR 1057. The following applies: MH broth with 0.9% NaCl, 14 passages with the same agent (VicBac[1–22]: after 10 passages). As to the method:
Resistance induction experiments were performed using the previously described method. Briefly, on day one, the overnight culture of wild-type bacteria was diluted with the 2× MH broth supplemented with 1.8% NaCl to reach a final cell concentration of 10^6 CFU/mL. 50 µL of the obtained bacterial suspension were added to aliquots of 50 µL of the peptide solutions serially diluted with the sterilized 0.1% BSA in 96-well flat-bottom polystyrene microplates. After incubation for 20 ± 2 h at 37 °C and 950 rpm, MICs were determined as described above. For each subsequent daily transfer, 2–4 μL of the inoculum taken from the first well containing a sub-inhibitory drug concentration were diluted with 2 mL of the fresh 2× MH broth supplemented with 1.8% NaCl. […] Bacteria that grew at the highest concentration of AMPs on the final day were passaged a further 3 times on drug-free agar plates before determining the final MIC value.

For the next assay, the system named is B. subtilis B-886. The experiment in a line: Antimicrobial assay (MIC). Format: cell-based, Bacillus subtilis. Conditions: Mueller-Hinton broth supplemented with 0.9% NaCl. As to the method:
as §1

In brackets after ≈: the same amount, converted by molar mass. Where a SMILES comes first, the peptide text is derived from it. Bounds are passed on as bounds.

`CC[C@H](C)[C@H](NC(=O)[C@H](CCCNC(=N)N)NC(=O)[C@@H](N)CCCNC(=N)N)C(=O)N[C@@H](CCCNC(=N)N)C(=O)N[C@@H](CCCNC(=N)N)C(=O)N1CCC[C@H]1C(=O)N[C@@H](CCCNC(=N)N)C(=O)N[C@@H](CC(C)C)C(=O)N1CCC[C@H]1C(=O)N[C@@H](CCCNC(=N)N)C(=O)N1CCC[C@H]1C(=O)N[C@@H](CCCNC(=N)N)C(=O)N[C@H](C(=O)N1CCC[C@H]1C(=O)N[C@@H](CCCNC(=N)N)C(=O)N1CCC[C@H]1C(=O)N[C@@H](CCCNC(=N)N)C(=O)N[C@H](C(=O)N1CCC[C@H]1C(=O)N1CCC[C@H]1C(=O)N[C@@H](CCCNC(=N)N)C(=O)N[C@H](C(=O)N1CCC[C@H]1C(=O)N[C@@H](CCCNC(=N)N)C(=O)N1CCC[C@H]1C(=O)N[C@H](C(=O)N[C@@H](CC(C)C)C(=O)N1CCC[C@H]1C(=O)N1CCC[C@H]1C(=O)N1CCC[C@H]1C(=O)N[C@@H](CCCNC(=N)N)C(=O)N[C@H](C(=O)N1CCC[C@H]1C(=O)N[C@@H](Cc1ccccc1)C(=O)N1CCC[C@H]1C(=O)N[C@@H](CCCNC(=N)N)C(=O)N[C@@H](Cc1ccccc1)C(=O)N1CCC[C@H]1C(=O)N[C@@H](CCCNC(=N)N)C(N)=O)C(C)C)C(C)C)[C@@H](C)CC)[C@@H](C)CC)C(C)C` [VicBac[1-39]] (H-RRIRRPRLPRPRVPRPRIPPRIPRPVLPPPRVPFPRFPR-NH2; N-terminus assumed): the IC50 in assay [1] is 500 nM. Besides, the “MIC, S. aureus ATCC 6538P” value against S. aureus ATCC 6538P is reported as 0.25 µM (≈ 1.2 µg/mL). In the assay on S. aureus MDR CI 119, the “MIC, S. aureus MDR CI 119” value is given as above 32 µM. Moreover, the “MIC, S. aureus ATCC 29213” value in the assay with S. aureus ATCC 29213 is given as above 32 µM. The “inhibition of S. aureus ATCC 25923” value in the assay on S. aureus ATCC 25923 is recorded as “could not inhibit”. Moreover, in the assay with E. coli MDR 1057, the “increase in MIC value after serial passage selection” value is given as “did not change”. In the assay on B. subtilis B-886, the “MIC, B. subtilis B-886” value is 16 µM (≈ 77.1 µg/mL).

A word on the IC50: it is the concentration needed to halve the response being measured.
